Patent US4482486A, “Analogs of vasopressin” (Ceskoslovenska akademie ved, priority 1982, dated 1984)

Legend:
Format in all cases: in vivo
nonanaesthesized rat = test: Antidiuretic activity, nonanaesthesized rat; details: percent of the effect of [8D-argine] deaminovasopressin at the level of threshold efficiency
Protocol: (§1) The endocrine biological activities (in I.U./mg--International Unit--see "Handbook of Experimental Pharmacology", Vol. XXIII: Neurohypophysical hormones and similar polypeptides (B. Berde, Ed), p. 131, Springer-Verlag,Berlin 1968) of the described compounds were determined in rats.
b = nonanaesthesized rat Activity is expressed in percent of the effect o
[8D-argine] deaminovasopressin at the level of threshold efficiency

rats [1] = test: Pressor endocrine activity in rats; details: rat
Protocol: as §1

rats [2] = test: Uterotonic endocrine activity in rats; details: rat
Protocol: as §1

rats [3] = test: Galactogogic endocrine activity in rats; details: rat
Protocol: as §1

anaesthesized rat = test: Antidiuretic activity, anaesthesized rat
Protocol: as §1

Row | Compound | Antidiuretic activity b (nonanaesthesized rat) [%] | Pressor activity (rats [1]) | Uterotonic activity (rats [2]) [I.U./mg] | Galactogogic activity (rats [3]) [I.U./mg] | Antidiuretic activity a (anaesthesized rat) [I.U./mg]
1 | NC(=O)CC[C@@H]1NC(=O)[C@H](Cc2ccccc2)NC(=O)[C@H](Cc2ccc(O)cc2)NC(=O)[C@@H](N)CSSC[C@@H](C(=O)N2CCC[C@H]2C(=O)N[C@@H](CCCN=C(N)N)C(=O)NCC(N)=O)NC(=O)[C@H](CC(N)=O)NC1=O [AVP, [8arginine] vasopressin, reference compound] | 20 | 465 I.U./mg | 17 | 69 | 465
2 | Lactam of tyrosyl-phenylalanyl-glutaminyl-asparaginyl-S-(γ-carboxypropyl)cysteinyl-prolyl-D-arginine [Ia] | 0.2 | inhibition | 0.09 | – | 0.8
3 | [8-D-Arginine, 9-desglycinamide] vasopressin [Ib] | 0.4 | 0.2 I.U./mg | 0.07 | 0.12 | 4.5
4 | [8-Ornithine, 9-desglycinamide]vasopressin [Ic] | 0.1 | 0.2 I.U./mg | 0.09 | 0.02 | 0.3
